Laboratory results reported in patent US6770649B2, “1-[1-(hetero)aryl-1-perhydroxyalkylmethyl]-piperazine compounds, process for their preparation and pharmaceutical compositions containing them” (Solvay Pharmaceuticals GmbH, priority 2001, dated 2004).
Like-named read-outs stand apart in the source and are kept apart here.

How the values were obtained:
human NK-2 receptor = target: T1, human NK-2 receptor (Homo sapiens, UniProt P21452); test: Binding power of the test substances to NK-2 receptors in vitro ([3H]-SR 48968 displacement, CHO cell membranes); settings: displacement of [3H]-SR 48968, 90 min incubation, average of at least three measurements, 10^-6 to 10^-10 mol/l, read-out: pKi, affinity to human NK-2 receptors (converted)
T1 construct: expressed in transfected cells; host or cells: CHO cells (membrane preparation)
T1 sequence (P21452 1-398): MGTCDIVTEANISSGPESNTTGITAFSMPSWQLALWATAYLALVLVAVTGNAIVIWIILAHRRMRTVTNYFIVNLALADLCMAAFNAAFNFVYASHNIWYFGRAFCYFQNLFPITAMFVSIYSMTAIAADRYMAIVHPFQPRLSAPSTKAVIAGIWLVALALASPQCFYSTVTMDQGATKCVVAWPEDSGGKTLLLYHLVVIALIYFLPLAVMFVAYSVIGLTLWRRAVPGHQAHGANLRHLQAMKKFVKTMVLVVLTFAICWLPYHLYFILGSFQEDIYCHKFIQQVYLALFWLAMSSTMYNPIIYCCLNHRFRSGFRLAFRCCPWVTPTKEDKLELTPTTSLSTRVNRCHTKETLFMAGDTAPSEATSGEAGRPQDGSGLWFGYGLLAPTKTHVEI
Procedure: 1. Determination of the Binding Power of the Test Substances to NK-2 Receptors in vitro
The affinity of the test substances to human NK-2 receptors was measured in vitro. The ability of the test substances to displace the selective NK-2 receptor antagonist SR 48968 (=saredutant) used as reference ligand from its corresponding bond was determined.
The receptor binding studies were carried out with radioactively marked [^3H]-SR 48968 (from Amersham) as ligand. For the binding test, different samples of a membrane preparation of CHO cells (=[…]), which express the human NK-2 receptor (for preparation, see N. P. Gerard et al., Journal of Biological Chemistry 265/33 (1990) 20455-20462), were incubated for 90 minutes (=min.) with a solution of the marked ligand, with the incubation mixtures containing no test substance or additions of different concentrations of test substance. Then in each case the membrane-bound ligands in the samples were separated from free ligands by filtration. The fraction remaining in the filter was washed several times with buffer solution, before its radioactivity was measured using a liquid scintillation counter. That concentration which effects half-maximum displacement of the bound reference ligand was determined as IC50 of the respective test substance. The inhibition constant (Ki value) of the test substance was calculated from the respective IC50 value, and was stated as the negative logarithmised value thereof (pKi).
For the compounds of Examples 1 to 39, the affinity to human NK-2 receptors was determined in each case by at least three measurements of the test substances in concentration series of 10^−6 to 10^−10 mol/l. If several measurements were performed, the average thereof was listed each time.

NK-2 receptors = target: T2, NK-2 receptors (Cavia porcellus, UniProt Q64077); test: NK-2-receptor-antagonistic effectiveness in vivo in anaesthetised guinea pigs (NKA test stimulus); parameters: species or system guinea pig; settings: for ED50: guinea pig
T2 construct: the NK-2 receptors present in the gall-bladder preparations; from tissue; host or cells: Pirbright-White guinea pig: isolated gall-bladder (A2); anaesthetised whole animal (A3)
T2 sequence (Q64077 1-402): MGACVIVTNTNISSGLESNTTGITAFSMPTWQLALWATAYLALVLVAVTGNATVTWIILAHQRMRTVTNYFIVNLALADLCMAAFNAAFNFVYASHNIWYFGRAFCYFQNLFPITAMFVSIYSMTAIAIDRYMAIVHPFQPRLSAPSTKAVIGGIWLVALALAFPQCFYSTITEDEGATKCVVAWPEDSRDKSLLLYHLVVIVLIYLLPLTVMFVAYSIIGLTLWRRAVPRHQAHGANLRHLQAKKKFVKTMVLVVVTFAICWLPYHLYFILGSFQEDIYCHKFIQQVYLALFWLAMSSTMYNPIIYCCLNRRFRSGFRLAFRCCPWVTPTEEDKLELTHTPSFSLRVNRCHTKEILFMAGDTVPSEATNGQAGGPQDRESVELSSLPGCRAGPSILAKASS
Excerpt: 3. Determination of the NK-2-receptor-antagonistic Effectiveness of the Test Substances in vivo
The NK-2- and NK-1-antagonistic activities of the test substances were investigated in anaesthetised guinea pigs in each case after intravenous (=i.v.) and oral (=p.o.) administration in vivio. With the present test model it is possible to detect both NK-2-antagonistic effects in three different organ systems (respiratory tracts, colon and circulation) and NK-1-antagonistic effects (rapid drop in blood pressure) in an animal simultaneously.
Pirbright-White guinea pigs of a body weight of 500-700 g were anaesthetised with ketamine/xylazine (67/13 mg/kg subcutaneously, initial dose, further doses administered as required). The animals were provided with an intravenous catheter in order to administer the substance and an intra-arterial catheter to measure the blood pressure. The animals were artificially ventilated via a tracheal cannula and the respiratory pressure was recorded by means of a pressure transducer. A balloon was introduced into the distal colon of the animals for manometric recording of colon motility by means of a pressure transducer. Blood pressure, heart rate, respiratory pressure and colonic pressure were measured continuously for each animal and plotted on a recorder and by means of a digital data-processing system. Neurokinin A (=NKA; 200 pmol/animal) was administered i.v. as a bolus as a test stimulus to stimulate the NK-1- and the NK-2 receptors. An addition of NKA of this type results in a great increase in respiratory pressure (bronchoconstriction) and colonic pressure, and in a biphasic drop in blood pressure. The first phase of hypotension (=phase of maximum hypotension within the first minute after administration of NKA) is mediated via NK-1 receptors, since they can be blocked completely by specific NK-1 receptor antagonists. The second phase of delayed hypotension (=phase of maximum hypotension after 2-5 min.) on the other hand is mediated via NK-2 receptors, since they can be blocked by specific NK-2 receptor antagonists. The doses of the test substances are given as ED50 values which each result in a response to the NKA test stimulus which is reduced to 50% of the initial value, as characteristic variables for the individual measurement parameters bronchoconstriction, colonic pressure and change in blood pressure mediated by NK-1 or NK-2.
The antagonistic effects of the test substances were first investigated in cumulative form, the time of the NKA test stimulus being 1 min. after the administration of the respective doses of the test substances had ended. These ED50 values obtained from cumulative dose effect curves are plotted in Table 2 below. In order additionally to detect the variation over time of the antagonistic effects of the test substances, the action of the NKA test stimulus was determined at different times (1, 30, 60, 90, 120, 150 and 180 min.) after administration of the test substances.

Structure (SMILES)	Ki (human NK-2 receptor)	other results
CN(C[C@@H](CCN1CCN(C(c2ccsc2)[C@H](O)CO)CC1)c1ccc(Cl)c(Cl)c1)C(=O)c1ccccc1 (stereo partly drawn) [Example 5]	≤ 1 nM	NK-2-receptor-antagonistic activity of colon motility, late drop in blood pressure and respiratory resistance (in words) (NK-2 receptors; cumulative administration i.v., antagonism detected 1 min. after administration had ended): marked NK-2-receptor-antagonistic activity; ED50 (NK-2 receptors; iv, cumulative dosing, NKA stimulus 1 min. after administration, NK-2-mediated late drop in blood pressure, read-out: ED50 Blood pressure, i.v. after 1 min. (cumulative)): 0.13 µmol/kg; ED50 (NK-2 receptors; iv, cumulative dosing, NKA stimulus 1 min. after administration, respiratory resistance (bronchoconstriction), read-out: ED50 Respiratory resistance, i.v. after 1 min. (cumulative)): 0.106 µmol/kg; ED50 (NK-2 receptors; iv, cumulative dosing, NKA stimulus (200 pmol/animal i.v.) 1 min. after administration, colonic pressure, read-out: ED50 Colonic pressure, i.v. after 1 min. (cumulative)): 0.041 µmol/kg; ED50 (NK-2 receptors; iv, from AUC of antagonistic effect over 120 min after administration, colonic pressure, read-out: ED50 Colonic pressure, i.v. AUC over 120 min): 0.014 µmol/kg; ED50 (NK-2 receptors; iv, from AUC over 120 min after administration, NK-2-mediated drop in blood pressure, read-out: ED50 Blood pressure, i.v. AUC over 120 min): 0.004 µmol/kg; ED50 (NK-2 receptors; iv, from AUC over 120 min after administration, respiratory resistance, read-out: ED50 Respiratory resistance, i.v. AUC over 120 min): 0.008 µmol/kg; ED50 (NK-2 receptors; po, from AUC over 180 min after administration, NK-2-mediated drop in blood pressure, read-out: ED50 Blood pressure, p.o. AUC over 180 min.): 7.6 µmol/kg; ED50 (NK-2 receptors; po, from AUC over 180 min after administration, colonic pressure, read-out: ED50 Colonic pressure, p.o. AUC over 180 min.): 3.4 µmol/kg; ED50 (NK-2 receptors; po, from AUC over 180 min after administration, respiratory resistance, read-out: ED50 Respiratory resistance, p.o. AUC over 180 min.): 2.7 µmol/kg
CN(CC(CCN1CCN(C(c2ccsc2)[C@H](O)CO)CC1)c1ccc(Cl)c(Cl)c1)C(=O)c1ccccc1 (mixture of isomers) [Example 8]	≤ 10 nM	–
CN(C[C@@H](CCN1CCN(C(c2ccco2)[C@H]2COC(=O)O2)CC1)c1ccc(Cl)c(Cl)c1)C(=O)c1ccccc1 (stereo partly drawn) [Example 4, N-[((2S)-2-(3,4)-dichlorophenyl)-4-(4-{2-furyl[(4S)-2-oxo-1,3-dioxolan-4-yl]methyl}-1-piperazinyl)butyl]-N-methylbenzamide]	≤ 1 nM	–
CN(C[C@@H](CCN1CCN(C(c2ccco2)[C@H](O)CO)CC1)c1ccc(Cl)c(Cl)c1)C(=O)c1ccccc1 (stereo partly drawn) [Example 2, N-((2S)-2-(3,4-dichlorophenyl)-4-{4[(2S)-2,3-dihydroxy-1-(2-furyl)propyl]-1-piperazinyl}-butyl)-N-methylbenzamide]	≤ 1 nM	–
CN(C[C@@H](CCN1CCN(C(c2ccsc2)[C@@H](O)[C@H](O)[C@@H](O)CO)CC1)c1ccc(Cl)c(Cl)c1)C(=O)c1ccccc1 (stereo partly drawn) [Example 12, N-((2S)-2-(3,4-dichlorophenyl)-4-{4[(2R,3S,4S)-2,3,4,5-tetrahydroxy-1-(3-thienyl)pentyl]-1-piperazinyl}butyl)-N-methylbenzamide]	≤ 10 nM	–
CN(CC(CCN1CCN(C(c2ccsc2)[C@@H](O)CO)CC1)c1ccc(Cl)c(Cl)c1)C(=O)c1ccccc1 (mixture of isomers) [Example 11]	≤ 10 nM	–
CN(C[C@@H](CCN1CCN(C(c2ccco2)[C@H](O)[C@@H](O)[C@H](O)CO)CC1)c1ccc(Cl)c(Cl)c1)C(=O)c1ccccc1 (stereo partly drawn) [Example 10, N-((2S)-2-(3,4-dichlorophenyl)-4-{4[(2S,3R,4R)-2,3,4,5-tetrahydroxy-1-(2-furyl)pentyl]-1-piperazinyl}-butyl)-N-methylbenzamide]	≤ 10 nM	–
CN(C[C@@H](CCN1CCN(C(c2ccoc2)[C@H](O)CO)CC1)c1ccc(Cl)c(Cl)c1)C(=O)c1ccccc1 (stereo partly drawn) [Example 6, N-((2S)-2-(3,4-dichlorophenyl)-4-{4[(2S)-2,3-dihydroxy-1-(3-furyl)propyl]-1-piperazinyl}-butyl)-N-methylbenzamide]	≤ 1 nM	–

The next lines start with results.

Ki (human NK-2 receptor)	Structure (SMILES)	other results
≤ 10 nM	CN(CC(CCN1CCN(C(c2ccsc2)[C@H](O)[C@@H](O)[C@H](O)[C@H](O)CO)CC1)c1ccc(Cl)c(Cl)c1)C(=O)c1ccccc1 (mixture of isomers) [Example 23]	–
≤ 10 nM	CN(CC(CCN1CCN(C(c2ccsc2)C(O)CO)CC1)c1ccc(Cl)c(Cl)c1)C(=O)c1ccccc1 (stereo not drawn) [Example 18]	–
≤ 10 nM	CN(CC(CCN1CCN(C(CO)c2ccsc2)CC1)c1ccc(Cl)c(Cl)c1)C(=O)c1ccccc1 (stereo not drawn) [Example 26]	–
≤ 10 nM	CN(CC(CCN1CCN(C(c2cccs2)[C@@H](O)[C@H](O)[C@H](O)CO)CC1)c1ccc(Cl)c(Cl)c1)C(=O)c1ccccc1 (mixture of isomers) [Example 19]	–
≤ 10 nM	CN(CC(CCN1CCN(C(c2cccs2)[C@H](O)[C@@H](O)[C@H](O)CO)CC1)c1ccc(Cl)c(Cl)c1)C(=O)c1ccccc1 (mixture of isomers) [Example 24]	–
≤ 10 nM	CN(CC(CCN1CCN(C(c2cccs2)C(O)CO)CC1)c1ccc(Cl)c(Cl)c1)C(=O)c1ccccc1 (stereo not drawn) [Example 22]	–
≤ 10 nM	CN(CC(CCN1CCN(C(c2ccsc2)[C@@H](O)[C@H](O)[C@@H](O)[C@@H](O)CO)CC1)c1ccc(Cl)c(Cl)c1)C(=O)c1ccccc1 (mixture of isomers) [Example 20]	–
≤ 10 nM	CN(CC(CCN1CCN(C(c2ccsc2)[C@@H](O)[C@@H](O)[C@H](O)[C@H](O)CO)CC1)c1ccc(Cl)c(Cl)c1)C(=O)c1ccccc1 (mixture of isomers) [Example 21]	–
≤ 10 nM	CN(CC(CCN1CCN(C(c2ccccc2)[C@H](O)[C@@H](O)[C@H](O)CO)CC1)c1ccc(Cl)c(Cl)c1)C(=O)c1ccccc1 (mixture of isomers) [Example 25]	–
≤ 10 nM	CN(CC(CCN1CCN(C(c2ccsc2)[C@@H](O)[C@@H](O)[C@@H](O)CO)CC1)c1ccc(Cl)c(Cl)c1)C(=O)c1ccccc1 (mixture of isomers) [Example 27]	–
≤ 1 nM	CN(C[C@@H](CCN1CCN(C(c2ccco2)[C@H]2COC(=S)O2)CC1)c1ccc(Cl)c(Cl)c1)C(=O)c1ccccc1 (stereo partly drawn) [Example 39]	–
≤ 10 nM	CN(CC(CCN1CCN(C(c2ccsc2)[C@H](O)[C@@H](O)CO)CC1)c1ccc(Cl)c(Cl)c1)C(=O)c1ccccc1 (mixture of isomers) [Example 16]	–
